# Measured values: ChEMBL document CHEMBL5523766 (J Med Chem, 2024)
# What was measured:
# [1] = Lipophilicity, logD of compound at pH 7.4; type: physicochemical; conditions: buffer
# [2] = molecular target: CYP2C19 (Homo sapiens, UniProt P33261); experiment: Time dependent inhibition of CYP2C19 (unknown origin) at 10 uM relative to control; type: ADME; conditions: read-out: TDI
# [3] = Toxicity in CB17-SCID mouse xenografted with human Granta-519 cells assessed as change in body weight at 50 mg/kg,po bid for 3 weeks administrated 5 days weekly; type: organism-based; conditions: in vivo, 504 h
# [4] = Toxicity in BALB/c mouse xenografted with human A2780 cells assessed as change in body weight at 50 mg/kg,po bid for 3 weeks administrated 5 days weekly; type: organism-based; conditions: in vivo, 504 h
# [5] = molecular target: AMPK alpha2/beta1/gamma1 (Homo sapiens, UniProt P54619+P54646+Q9Y478); experiment: Inhibition of human AMPK alpha2/beta1/gamma1; type: protein-complex assay
# [6] = molecular target: Interleukin-1 receptor-associated kinase 4 (Homo sapiens, UniProt Q9NWZ3); experiment: Inhibition of human IRAK4
# [7] = molecular target: Tyrosine-protein kinase Lyn (Homo sapiens, UniProt P07948); experiment: Inhibition of human LYN
# [8] = molecular target: Aurora kinase B (Homo sapiens, UniProt Q96GD4); experiment: Inhibition of human Aurora B
# [9] = molecular target: CYP2D6 (Homo sapiens, UniProt P10635); experiment: Time dependent inhibition of CYP2D6 (unknown origin) at 10 uM relative to control; type: ADME; conditions: read-out: TDI
# [10] = molecular target: Tyrosine-protein kinase Mer (Homo sapiens, UniProt Q12866); experiment: Inhibition of human MER
# [11] = Apparent permeability across apical to basolateral side in human Caco-2 cells; type: ADME, cell-based
# [12] = molecular target: Receptor-type tyrosine-protein kinase FLT3 (Homo sapiens, UniProt P36888); experiment: Inhibition of human FLT3
# [13] = Brain to plasma ratio in ICR mouse at 50 mg/kg,po measured upto 24 hrs by LC-MS/MS analysis; type: ADME, organism-based
# [14] = molecular target: Serine/threonine-protein kinase mTOR (Homo sapiens, UniProt P42345); experiment: Inhibition of human mTOR
# [15] = molecular target: Phosphatidylinositol 4,5-bisphosphate 3-kinase catalytic subunit alpha isoform (Homo sapiens, UniProt P42336); experiment: Inhibition of human PI3Kalpha
# [16] = Toxicity in CB17-SCID mouse xenografted with human Granta-519 cells assessed as change in body weight at 50 mg/kg,po once daily for 3 weeks administrated 5 days weekly in presence of niraparib; type: organism-based; conditions: in vivo, 504 h
# [17] = molecular target: Tyrosine-protein kinase BTK (Homo sapiens, UniProt Q06187); experiment: Inhibition of human BTK
# [18] = Apparent permeability across apical to basolateral side in dog MDCK-MDR1 cells; type: ADME, cell-based, Canis lupus familiaris
# [19] = system: Granta-519; experiment: Induction of apoptosis in human Granta-519 cells assessed as viable cells at 2000 nM incubated for 48 hrs by Annexin-V-FITC/propidium iodide staining based flow cytometry (reference value: 92.7 %); type: functional; conditions: read-out: Activity
# [20] = molecular target: Tyrosine-protein kinase JAK1 (Homo sapiens, UniProt P23458); experiment: Inhibition of human JAK1
# Sequence of Tyrosine-protein kinase JAK1 (P23458 whole entry): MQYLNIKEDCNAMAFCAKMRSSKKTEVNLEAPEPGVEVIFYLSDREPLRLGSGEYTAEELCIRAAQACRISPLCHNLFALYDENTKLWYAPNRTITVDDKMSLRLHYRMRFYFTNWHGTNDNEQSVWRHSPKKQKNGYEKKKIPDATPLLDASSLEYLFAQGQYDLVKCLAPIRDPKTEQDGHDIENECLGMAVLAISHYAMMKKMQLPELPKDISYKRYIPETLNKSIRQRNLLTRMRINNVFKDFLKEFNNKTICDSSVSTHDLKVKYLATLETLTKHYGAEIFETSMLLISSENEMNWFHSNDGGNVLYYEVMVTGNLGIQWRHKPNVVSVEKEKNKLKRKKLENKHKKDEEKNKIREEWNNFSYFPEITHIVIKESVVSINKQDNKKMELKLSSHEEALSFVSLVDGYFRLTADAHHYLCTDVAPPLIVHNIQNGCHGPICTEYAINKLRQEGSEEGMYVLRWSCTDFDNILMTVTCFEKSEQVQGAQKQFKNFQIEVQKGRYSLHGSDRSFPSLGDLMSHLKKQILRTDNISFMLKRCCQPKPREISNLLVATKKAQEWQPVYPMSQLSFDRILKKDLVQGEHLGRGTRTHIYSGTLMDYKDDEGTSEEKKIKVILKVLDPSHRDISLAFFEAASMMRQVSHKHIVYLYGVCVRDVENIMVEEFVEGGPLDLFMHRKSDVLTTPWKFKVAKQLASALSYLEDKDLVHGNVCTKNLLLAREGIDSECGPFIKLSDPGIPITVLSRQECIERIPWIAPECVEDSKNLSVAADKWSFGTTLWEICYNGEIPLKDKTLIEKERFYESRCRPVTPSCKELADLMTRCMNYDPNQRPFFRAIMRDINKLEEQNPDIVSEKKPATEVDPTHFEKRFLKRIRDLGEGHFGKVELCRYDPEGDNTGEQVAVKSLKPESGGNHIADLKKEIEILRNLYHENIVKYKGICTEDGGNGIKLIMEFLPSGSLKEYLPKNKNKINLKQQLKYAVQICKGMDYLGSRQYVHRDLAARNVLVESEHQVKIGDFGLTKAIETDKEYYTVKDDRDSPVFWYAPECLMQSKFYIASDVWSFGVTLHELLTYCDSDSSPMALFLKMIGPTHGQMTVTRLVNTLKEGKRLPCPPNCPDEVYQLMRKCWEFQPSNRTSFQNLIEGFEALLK
# [21] = AUClast in ICR mouse at 50 mg/kg,po measured upto 24 hrs by LC-MS/MS analysis; type: ADME, organism-based; conditions: in vivo
# [22] = Plasma protein binding in mouse; type: ADME, cell-free; conditions: read-out: PPB (converted)
# [23] = Tmax in ICR mouse at 50 mg/kg,po measured upto 24 hrs by LC-MS/MS analysis; type: ADME, organism-based; conditions: in vivo
# [24] = Acute toxicity in Beagle dog assessed as change in platelet count at 10 to 90 mg/kg,po once daily for 7 days; type: organism-based, Canis lupus familiaris; conditions: in vivo, 168 h, dose 10-90 mg/kg, time 7 day
# [25] = Half life in ICR mouse at 50 mg/kg,po measured upto 24 hrs by LC-MS/MS analysis; type: ADME, organism-based; conditions: in vivo
# [26] = molecular target: Tyrosine-protein kinase Lck (Homo sapiens, UniProt P06239); experiment: Inhibition of human LCK
# Sequence of Tyrosine-protein kinase Lck (P06239 whole entry): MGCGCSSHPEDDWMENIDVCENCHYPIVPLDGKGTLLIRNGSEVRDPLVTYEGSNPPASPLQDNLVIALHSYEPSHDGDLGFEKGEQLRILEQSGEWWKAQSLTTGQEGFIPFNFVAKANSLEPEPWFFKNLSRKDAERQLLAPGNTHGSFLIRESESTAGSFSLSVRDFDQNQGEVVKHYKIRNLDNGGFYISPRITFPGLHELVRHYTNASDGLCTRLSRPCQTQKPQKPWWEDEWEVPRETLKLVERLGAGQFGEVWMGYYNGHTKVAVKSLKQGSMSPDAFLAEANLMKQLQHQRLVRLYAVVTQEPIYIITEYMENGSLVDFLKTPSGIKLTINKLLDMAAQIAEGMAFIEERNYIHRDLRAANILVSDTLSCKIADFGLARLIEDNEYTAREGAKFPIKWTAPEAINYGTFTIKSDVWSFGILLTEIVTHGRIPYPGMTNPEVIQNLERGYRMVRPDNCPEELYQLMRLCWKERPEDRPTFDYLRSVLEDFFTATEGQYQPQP
# [27] = molecular target: CYP3A4 (Homo sapiens, UniProt P08684); experiment: Time dependent inhibition of CYP3A4 (unknown origin) at 10 uM relative to control; type: ADME; conditions: read-out: TDI
# [28] = Apparent permeability across basolateral to apical side in dog MDCK-MDR1 cells; type: ADME, cell-based, Canis lupus familiaris
# [29] = molecular target: NUAK family SNF1-like kinase 1 (Homo sapiens, UniProt O60285); experiment: Inhibition of human ARK5
# [30] = Toxicity in BALB/c mouse xenografted with human HT-29 cells assessed as change in body weight at 50 mg/kg,po once daily for 4 weeks in presence of 3 Gy of ionizing radiation; type: organism-based; conditions: in vivo, 672 h
# [31] = Cmax in ICR mouse at 50 mg/kg,po measured upto 24 hrs by LC-MS/MS analysis; type: ADME, organism-based; conditions: in vivo
# [32] = molecular target: Serine/threonine-protein kinase 17B (Homo sapiens, UniProt O94768); experiment: Inhibition of human DRAK2
# [33] = molecular target: CYP2C9 (Homo sapiens, UniProt P11712); experiment: Time dependent inhibition of CYP2C9 (unknown origin) at 10 uM relative to control; type: ADME; conditions: read-out: TDI
# [34] = AUCinfinity in ICR mouse at 50 mg/kg,po measured upto 24 hrs by LC-MS/MS analysis; type: ADME, organism-based; conditions: in vivo
# [35] = molecular target: Serine-protein kinase ATM (Homo sapiens, UniProt Q13315); experiment: Inhibition of human ATM
# [36] = system: Granta-519; experiment: Induction of apoptosis in human Granta-519 cells assessed as viable cells at 1000 nM incubated for 48 hrs by Annexin-V-FITC/propidium iodide staining based flow cytometry (reference value: 92.7 %); type: functional; conditions: read-out: Activity
# [37] = molecular target: Cyclin-dependent kinase 2 (Homo sapiens, UniProt P24941); experiment: Inhibition of human CDK2
# [38] = molecular target: DNA-dependent protein kinase catalytic subunit (Homo sapiens, UniProt P78527); experiment: Inhibition of human DNA-PK
# [39] = Apparent permeability across basolateral to apical side in human Caco-2 cells; type: ADME, cell-based
# [40] = molecular target: Serine/threonine-protein kinase ATR (Homo sapiens, UniProt Q13535); experiment: Inhibition of human ATR
# Sequence of Serine/threonine-protein kinase ATR (Q13535 whole entry): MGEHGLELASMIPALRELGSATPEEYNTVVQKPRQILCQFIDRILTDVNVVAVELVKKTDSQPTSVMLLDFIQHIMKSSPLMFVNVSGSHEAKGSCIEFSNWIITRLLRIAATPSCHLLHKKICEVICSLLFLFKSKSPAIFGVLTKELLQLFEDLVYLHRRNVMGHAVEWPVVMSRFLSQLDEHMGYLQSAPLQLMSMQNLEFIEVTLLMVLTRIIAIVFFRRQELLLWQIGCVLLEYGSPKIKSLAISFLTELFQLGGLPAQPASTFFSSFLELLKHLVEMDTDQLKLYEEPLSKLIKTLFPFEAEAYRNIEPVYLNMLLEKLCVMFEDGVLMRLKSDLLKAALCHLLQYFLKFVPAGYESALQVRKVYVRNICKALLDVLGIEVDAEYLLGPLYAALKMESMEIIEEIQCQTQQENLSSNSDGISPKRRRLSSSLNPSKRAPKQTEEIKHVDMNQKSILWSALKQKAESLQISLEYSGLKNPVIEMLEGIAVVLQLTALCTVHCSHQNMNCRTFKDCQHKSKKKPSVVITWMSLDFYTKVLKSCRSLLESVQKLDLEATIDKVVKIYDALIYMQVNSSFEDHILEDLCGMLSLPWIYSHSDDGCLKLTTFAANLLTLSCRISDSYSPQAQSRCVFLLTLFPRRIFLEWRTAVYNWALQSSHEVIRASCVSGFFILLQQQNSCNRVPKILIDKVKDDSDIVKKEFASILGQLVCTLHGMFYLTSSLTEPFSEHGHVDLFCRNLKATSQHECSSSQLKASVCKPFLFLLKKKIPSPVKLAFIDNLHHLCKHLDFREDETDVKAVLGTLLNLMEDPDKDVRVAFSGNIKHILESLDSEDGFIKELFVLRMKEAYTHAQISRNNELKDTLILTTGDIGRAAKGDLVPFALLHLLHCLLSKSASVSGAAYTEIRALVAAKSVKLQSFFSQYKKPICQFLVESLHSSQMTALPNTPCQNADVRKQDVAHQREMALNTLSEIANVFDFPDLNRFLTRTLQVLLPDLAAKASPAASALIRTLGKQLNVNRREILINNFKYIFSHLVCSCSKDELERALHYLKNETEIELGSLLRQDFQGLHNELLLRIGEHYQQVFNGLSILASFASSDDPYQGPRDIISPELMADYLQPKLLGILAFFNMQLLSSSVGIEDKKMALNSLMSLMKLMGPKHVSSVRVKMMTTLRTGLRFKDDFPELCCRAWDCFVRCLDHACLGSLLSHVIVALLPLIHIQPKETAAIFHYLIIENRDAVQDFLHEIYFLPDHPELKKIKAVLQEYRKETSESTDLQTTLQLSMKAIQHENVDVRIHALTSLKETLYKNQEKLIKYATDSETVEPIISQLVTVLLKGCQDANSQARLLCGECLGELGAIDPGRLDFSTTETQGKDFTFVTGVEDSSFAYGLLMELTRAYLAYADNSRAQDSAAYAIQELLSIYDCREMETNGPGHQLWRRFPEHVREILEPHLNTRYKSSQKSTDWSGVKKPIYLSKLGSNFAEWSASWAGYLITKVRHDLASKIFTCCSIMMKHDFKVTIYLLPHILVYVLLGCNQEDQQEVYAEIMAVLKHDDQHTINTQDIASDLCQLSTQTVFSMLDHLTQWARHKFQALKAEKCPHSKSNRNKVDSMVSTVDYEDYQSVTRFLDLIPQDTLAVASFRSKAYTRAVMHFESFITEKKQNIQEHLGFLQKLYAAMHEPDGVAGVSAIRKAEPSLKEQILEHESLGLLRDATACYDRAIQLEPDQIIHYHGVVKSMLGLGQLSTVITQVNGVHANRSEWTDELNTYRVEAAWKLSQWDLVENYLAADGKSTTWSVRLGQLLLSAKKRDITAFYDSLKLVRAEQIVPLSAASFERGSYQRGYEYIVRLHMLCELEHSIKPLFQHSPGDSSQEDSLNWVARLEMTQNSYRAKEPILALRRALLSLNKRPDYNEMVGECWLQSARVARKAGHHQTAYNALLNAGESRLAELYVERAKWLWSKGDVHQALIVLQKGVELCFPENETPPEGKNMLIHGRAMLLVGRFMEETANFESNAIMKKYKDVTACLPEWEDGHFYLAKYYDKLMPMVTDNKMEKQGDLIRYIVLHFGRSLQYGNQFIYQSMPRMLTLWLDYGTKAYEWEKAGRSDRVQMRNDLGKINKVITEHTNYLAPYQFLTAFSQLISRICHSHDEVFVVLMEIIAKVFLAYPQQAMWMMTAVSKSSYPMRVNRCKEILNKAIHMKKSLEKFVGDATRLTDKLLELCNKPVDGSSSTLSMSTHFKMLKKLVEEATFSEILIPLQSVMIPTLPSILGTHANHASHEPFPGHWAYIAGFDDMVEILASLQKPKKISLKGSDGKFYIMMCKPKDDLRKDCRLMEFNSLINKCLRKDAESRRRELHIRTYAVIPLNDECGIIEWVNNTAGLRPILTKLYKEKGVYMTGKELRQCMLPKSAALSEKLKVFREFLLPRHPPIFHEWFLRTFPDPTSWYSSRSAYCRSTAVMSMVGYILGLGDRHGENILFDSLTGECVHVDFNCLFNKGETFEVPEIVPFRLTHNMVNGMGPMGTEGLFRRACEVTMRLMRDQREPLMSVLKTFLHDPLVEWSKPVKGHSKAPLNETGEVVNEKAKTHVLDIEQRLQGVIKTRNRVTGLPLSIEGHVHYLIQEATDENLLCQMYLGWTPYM
# [41] = Toxicity in BALB/c mouse xenografted with human CAPAN-1 cells assessed as change in body weight at 50 mg/kg,po once daily for 3 weeks administrated 4 days weekly in presence of gemcitabine; type: organism-based; conditions: in vivo, 504 h
# [42] = molecular target: CYP1A2 (Homo sapiens, UniProt P05177); experiment: Time dependent inhibition of CYP1A2 (unknown origin) at 10 uM relative to control; type: ADME; conditions: read-out: TDI
# [43] = Acute toxicity in Beagle dog assessed as change in serum creatinine level at 10 to 90 mg/kg,po once daily for 7 days; type: organism-based, Canis lupus familiaris; conditions: in vivo, 168 h, dose 10-90 mg/kg, time 7 day
# [44] = system: Granta-519; experiment: Induction of apoptosis in human Granta-519 cells assessed as viable cells at 500 nM incubated for 48 hrs by Annexin-V-FITC/propidium iodide staining based flow cytometry (reference value: 92.7 %); type: functional; conditions: read-out: Activity
# [45] = molecular target: Serine/threonine-protein kinase BRSK2 (Homo sapiens, UniProt Q8IWQ3); experiment: Inhibition of human BRSK2
# [46] = molecular target: ATR/ATRIP (Homo sapiens, UniProt Q13535); experiment: Inhibition of ATR/ATRIP (unknown origin) using 5-FAM-AK-17 as substrate preincubated with compound for 10 mins followed by ATP addition and measured after 240 mins by mobility shift assay; type: protein-complex assay
# Sequence of ATR/ATRIP (Q13535 whole entry): as above
# Sequence of ATR/ATRIP (Q8WXE1 whole entry, further chain): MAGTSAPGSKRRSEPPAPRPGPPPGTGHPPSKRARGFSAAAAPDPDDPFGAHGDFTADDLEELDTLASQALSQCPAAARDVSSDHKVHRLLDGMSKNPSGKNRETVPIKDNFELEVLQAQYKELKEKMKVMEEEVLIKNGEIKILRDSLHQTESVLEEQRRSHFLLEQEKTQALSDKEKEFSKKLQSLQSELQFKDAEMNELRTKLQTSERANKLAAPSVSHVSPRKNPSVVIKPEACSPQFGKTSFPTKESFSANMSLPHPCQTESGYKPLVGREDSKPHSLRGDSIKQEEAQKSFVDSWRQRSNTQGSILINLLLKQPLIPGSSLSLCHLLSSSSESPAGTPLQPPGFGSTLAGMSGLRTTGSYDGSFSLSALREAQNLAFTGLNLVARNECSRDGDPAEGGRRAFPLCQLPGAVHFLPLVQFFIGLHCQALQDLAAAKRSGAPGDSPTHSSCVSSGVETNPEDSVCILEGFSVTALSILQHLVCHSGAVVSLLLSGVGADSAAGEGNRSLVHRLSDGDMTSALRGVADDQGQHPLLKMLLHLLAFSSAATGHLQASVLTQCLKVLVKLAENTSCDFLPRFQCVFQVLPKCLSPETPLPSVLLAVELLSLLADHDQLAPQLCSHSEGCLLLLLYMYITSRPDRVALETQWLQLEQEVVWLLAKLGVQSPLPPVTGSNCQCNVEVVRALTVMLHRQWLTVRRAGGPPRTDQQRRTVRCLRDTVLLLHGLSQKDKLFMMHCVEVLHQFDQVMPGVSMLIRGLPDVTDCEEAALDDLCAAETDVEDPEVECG
# [47] = Acute toxicity in Beagle dog assessed as change in body weight at 10 to 90 mg/kg,po once daily for 7 days; type: organism-based, Canis lupus familiaris; conditions: in vivo, 168 h, dose 10-90 mg/kg, time 7 day
# [48] = Toxicity in BALB/c mouse xenografted with human PC-3 cells assessed as change in body weight at 50 mg/kg,po bid for 3 weeks administrated 5 days weekly; type: organism-based; conditions: in vivo, 504 h
smiles,measurement,setting,value
C[C@@H]1COCCN1c1nc(-c2ccnc3[nH]ccc23)nc2c1ccn2S(C)(=O)=O,logD,[1],3.61
same,inhibition at 10 µM,[2],12.1%
same,Activity,[3],Toxic
same,Activity,[4],Toxic
same,IC50,[5],> 10 µM
same,IC50,[6],> 10 µM
same,IC50,[7],> 10 µM
same,IC50,[8],> 10 µM
same,inhibition at 10 µM,[9],2%
same,IC50,[10],> 10 µM
same,Papp A→B,[11],39.6 ×10⁻⁶ cm/s
same,IC50,[12],> 10 µM
same,BPR,[13],31%
same,IC50,[14],0.0458 µM
same,IC50,[15],2.06 µM
same,Activity,[16],Toxic
same,IC50,[17],> 10 µM
same,Papp A→B,[18],41.9 ×10⁻⁶ cm/s
same,viability at 2 µM,[19],76.9%
same,IC50,[20],> 10 µM
same,AUC(0-t) at 24 h,[21],140 µg·h/mL
same,fraction unbound,[22],0.005
same,Tmax,[23],1 h
same,Activity,[24],Toxic
same,half-life,[25],2.29 h
same,IC50,[26],2.59 µM
same,inhibition at 10 µM,[27],21.2%
same,Papp B→A,[28],51.2 ×10⁻⁶ cm/s
same,IC50,[29],7.31 µM
same,Activity,[30],Toxic
same,Cmax,[31],19800 ng/mL
same,IC50,[32],> 10 µM
same,inhibition at 10 µM,[33],7.09%
same,AUC(0-inf),[34],140 µg·h/mL
same,IC50,[35],3.21 µM
same,viability at 1 µM,[36],81.3%
same,IC50,[37],> 10 µM
same,IC50,[38],0.119 µM
same,Papp B→A,[39],32.5 ×10⁻⁶ cm/s
same,IC50,[40],0.0025 µM
same,Activity,[41],Toxic
same,inhibition at 10 µM,[42],37.5%
same,Activity,[43],Toxic
same,viability at 0.5 µM,[44],89.6%
same,IC50,[45],> 10 µM
same,IC50,[46],0.0016 µM
same,Activity,[47],Non-Toxic
same,Activity,[48],Toxic
